Data on 25 compounds can be found in patent publication US9006228B2 (Merck Sharp & Dohme Corp., priority 2011, dated 2015).

Molecules are shown by their SMILES.

This assay deals with T1, human GPR119 (Homo sapiens, UniProt Q8TDV5).
T1 sequence (Q8TDV5 1-308 limits assumed): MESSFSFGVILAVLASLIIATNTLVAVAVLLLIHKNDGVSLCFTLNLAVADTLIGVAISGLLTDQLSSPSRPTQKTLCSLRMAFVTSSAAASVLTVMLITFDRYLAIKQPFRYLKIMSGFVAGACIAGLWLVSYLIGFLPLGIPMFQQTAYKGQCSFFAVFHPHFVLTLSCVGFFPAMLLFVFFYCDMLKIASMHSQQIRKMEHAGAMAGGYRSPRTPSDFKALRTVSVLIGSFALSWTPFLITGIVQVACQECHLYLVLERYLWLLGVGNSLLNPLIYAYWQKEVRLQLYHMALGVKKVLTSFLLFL
The experiment in a line: Measurement of GPR119 signaling (cAMP assay; LANCE kit or HTRF) in HEK293 cells stably transfected with human GPR119. The assay is classed as cell-based. Conditions: agonist-stimulated cAMP in HEK293 cells expressing human GPR119. On the procedure:
Measurement of GPR119 Signaling Using LANCE 384-Well cAMP Kit
The adenylate cyclase assay was constructed following the LANCE™ cAMP Kit (Perkin Elmer, AD0264) instructions. […] The reaction was stopped by incubating with the supplied detection buffer containing the europium chelate of the Eu-SA/Biotin-cAMP tracer for 3 hours. The assay was performed in duplicate in a 384 well plate for duplicate plates. Fluorescence at 665 nm was measured using a PHERAstar instrument. Basal activity was determined using a DMSO control and maximum response was defined as cAMP stimulation produced by an internal agonist control. Standard cAMP concentrations were assayed concurrently for conversion of fluorescence signal to cAMP level. The data was analyzed using 4-parameter curve fit in Microsoft Excel.
Measurement of GPR119 Signaling Using a Cyclic AMP (cAMP) Homogenous Time Resolved Fluorescence (HTRF) Assay
Chinese hamster ovary (CHO) cell lines stably transfected with the permissive guanine nucleotide binding protein alpha 15 (Gα15) and murine GPR119 were maintained in DMEM media containing FBS, penicillin-streptomycin, puromycin, and G418 (geneticin). […] Agonist activation of the GPR119 receptor was measured in receptor transfected cells described above, treated with compounds of this invention, using a commercial homogenous time resolved fluorescence (HTRF) kit for measurement of cAMP (CisBio, Bedford, Mass.). The assay was performed in 96-well half-volume plates (murine) or 384-well plates (human) following the manufacturers instructions. Briefly, suspended cells were incubated with a dose titration of test compound at RT for 60 min, lysed, and incubated with HTRF reagents for an additional 60 min. The plate was read using an Envision multilabel reader (Perkin Elmer) adjusted to read time resolved fluorescence and the cAMP concentrations were extrapolated from a cAMP calibration curve. […] The concentration of test compound required to stimulate a half-maximal response (EC50), and efficacy as compared to an internal agonist control, was determined from a sigmoidal 4-parameter curve fit of the resulting plot of normalized activity versus compound concentration.
(In general: Cyclic AMP is a second messenger, typically raised through Gs and lowered through Gi signalling.)
In general, EC50 refers to the concentration needed to bring the measured effect to its halfway point. Turning to `COC(C)c1cnc(N2CCC([C@H]3C[C@H]3COCc3ccc(S(C)(=O)=O)cc3F)CC2)nc1` (single isomer, unassigned) [Example 125], the EC50 came to 0.36 nM.

For `COC(C)c1cnc(N2CCC([C@H]3C[C@H]3COCc3ccc(S(C)(=O)=O)cc3F)CC2)nc1` (single isomer, unassigned) [Example 126], the EC50 was determined as 1.5 nM.

As for `COC(C)c1cnc(N2CCC([C@H]3C[C@H]3COCc3ccc(S(C)(=O)=O)c(F)c3)CC2)nc1` (single isomer, unassigned) [Example 130], the midpoint of the response, the EC50, lay at 0.72 nM.

Consider `COC(C)c1cnc(N2CCC([C@H]3C[C@H]3COCc3ccc(S(C)(=O)=O)c(F)c3)CC2)nc1` (single isomer, unassigned) [Example 131], for which the midpoint of the response, the EC50, lay at 1.03 nM.

`CS(=O)(=O)c1ccc(COC[C@@H]2C[C@@H]2C2CCN(c3ncc(Cl)cn3)CC2)nc1` [Example 1, 5-chloro-2-{4-[(1R,2R)-2-({[5-(methylsulfonyl)pyridin-2-yl]methoxy}methyl)cyclopropyl]piperidin-1-yl}pyrimidine] returned an EC50 of 8.7 nM.

The compound `Cc1cnc(N2CCC([C@H]3C[C@H]3COCc3ccc(S(C)(=O)=O)cn3)CC2)nc1` [Example 2, 5-methyl-2-{4-[(1R,2R)-2-({[5-(methylsulfonyl)pyridin-2-yl]methoxy}methyl)cyclopropyl]piperidin-1-yl}pyrimidine] registered an EC50 of 10.8 nM.

Consider `CCc1cnc(N2CCC([C@H]3C[C@H]3COCc3ccc(S(C)(=O)=O)cn3)CC2)nc1` [Example 3, 5-ethyl-2-{4-[(1R,2R)-2-({[5-(methylsulfonyl)pyridin-2-yl]methoxy}methyl)cyclopropyl]piperidin-1-yl}pyrimidine], for which the EC50 was found to be 1.5 nM.

`CS(=O)(=O)c1ccc(COC[C@@H]2C[C@@H]2C2CCN(c3ncc(Br)cn3)CC2)nc1` [Example 4, 5-bromo-2-{4-[(1R,2R)-2-({[5-(methylsulfonyl)pyridin-2-yl]methoxy}methyl)cyclopropyl]piperidin-1-yl}pyrimidine] came in with an EC50 of 1 nM.

In the case of `CS(=O)(=O)c1ccc(COC[C@@H]2C[C@@H]2C2CCN(c3ncc(F)cn3)CC2)nc1` [Example 5, 5-fluoro-2-{4-[(1R,2R)-2-({[5-(methylsulfonyl)pyridin-2-yl]methoxy}methyl)cyclopropyl]piperidin-1-yl}pyrimidine], the response was half-maximal at 21 nM (EC50).

The compound `COc1cnc(N2CCC([C@H]3C[C@H]3COCc3ccc(S(C)(=O)=O)cn3)CC2)nc1` [Example 6, 5-methoxy-2-{4-[(1R,2R)-2-({[5-(methylsulfonyl)pyridin-2-yl]methoxy}methyl)cyclopropyl]piperidin-1-yl}pyrimidine] yielded an EC50 of 15 nM.

The compound `CS(=O)(=O)c1ccc(COC[C@@H]2C[C@@H]2C2CCN(c3ncc(-c4cn[nH]c4)cn3)CC2)nc1` [Example 7] returned an EC50 of 15.6 nM.

In the case of `CCCOC(=O)N1CCC([C@H]2C[C@H]2COCc2ccc(S(C)(=O)=O)cc2)CC1` [Example 8, propyl 4-[(1R,2R)-2-({[4-(methylsulfonyl)benzyl]oxy}methyl)cyclopropyl]piperidine-1-carboxylate], the EC50 was determined as 16 nM.

`CC(C)OC(=O)N1CCC([C@H]2C[C@H]2COCc2ccc(S(C)(=O)=O)cc2)CC1` [Example 9, isopropyl 4-[(1R,2R)-2-({[4-(methylsulfonyl)benzyl]oxy}methyl)cyclopropyl]piperidine-1-carboxylate] returned an EC50 of 16 nM.

`CC(C)COC(=O)N1CCC([C@H]2C[C@H]2COCc2ccc(S(C)(=O)=O)cc2)CC1` [Example 10, isobutyl 4-[(1R,2R)-2-({[4-(methylsulfonyl)benzyl]oxy}methyl)cyclopropyl]piperidine-1-carboxylate] had a half-maximal effective concentration (EC50) of 8.2 nM.

`CC1(OC(=O)N2CCC([C@H]3C[C@H]3COCc3ccc(S(C)(=O)=O)cc3)CC2)CC1` [Example 11, 1-methylcyclopropyl 4-[(1R,2R)-2-({[4-(methylsulfonyl)benzyl]oxy}methyl)cyclopropyl]piperidine-1-carboxylate] returned an EC50 of 3.9 nM.

`CS(=O)(=O)c1ccc(COC[C@@H]2C[C@@H]2C2CCN(C(=O)OC3CCC3)CC2)cc1` [Example 12, cyclobutyl 4-[(1R,2R)-2-({[4-(methylsulfonyl)benzyl]oxy}methyl)cyclopropyl]piperidine-1-carboxylate]: the EC50 came to 8.2 nM.

For the compound `CS(=O)(=O)c1ccc(COC[C@@H]2C[C@@H]2C2CCN(C(=O)OCC3CC3)CC2)cc1` [Example 13, cyclopropylmethyl 4-[(1R,2R)-2-({[4-(methylsulfonyl)benzyl]oxy}methyl)cyclopropyl]piperidine-1-carboxylate], a half-maximal response (EC50) required 3.2 nM.

Take `CS(=O)(=O)c1ccc(COC[C@@H]2C[C@@H]2C2CCN(c3ncc(Cl)cn3)CC2)cc1` [Example 14, 5-chloro-2-{4-[(1R,2R)-2-({[4-(methylsulfonyl)benzyl]oxy}methyl)cyclopropyl]piperidin-1-yl}pyrimidine]: the midpoint of the response, the EC50, lay at 0.7 nM.

Regarding `COc1cnc(N2CCC([C@H]3C[C@H]3COCc3ccc(S(C)(=O)=O)cc3)CC2)nc1` [Example 15, 5-methoxy-2-{4-[(1R,2R)-2-({[4-(methylsulfonyl)benzyl]oxy}methyl)cyclopropyl]piperidin-1-yl}pyrimidine], the midpoint of the response, the EC50, lay at 0.4 nM.

`CS(=O)(=O)c1ccc(COC[C@@H]2C[C@@H]2C2CCN(c3ncc(F)cn3)CC2)cc1` [Example 16, 5-fluoro-2-{4-[(1R,2R)-2-({[4-(methylsulfonyl)benzyl]oxy}methyl)cyclopropyl]piperidin-1-yl}pyrimidine] gave an EC50 of 5.8 nM.

`COC(=O)c1cnc(N2CCC([C@H]3C[C@H]3COCc3ccc(S(C)(=O)=O)cc3)CC2)nc1` [Example 17, methyl 2-{4-[(1R,2R)-2-({[4-(methylsulfonyl)benzyl]oxy}methyl)cyclopropyl]piperidin-1-yl}pyrimidine-5-carboxylate] showed a concentration for a half-maximal effect (EC50) of 20 nM.

The compound `CS(=O)(=O)c1ccc(COC[C@@H]2C[C@@H]2C2CCN(c3ncc(C4CC4)cn3)CC2)cc1` [Example 18, 5-cyclopropyl-2-{4-[(1R,2R)-2-({[4-(methylsulfonyl)benzyl]oxy}methyl)cyclopropyl]piperidin-1-yl}pyrimidine] registered an EC50 of 1 nM.

The compound `CC(C)Cc1cnc(N2CCC([C@H]3C[C@H]3COCc3ccc(S(C)(=O)=O)cc3)CC2)nc1` [Example 19, 5-isobutyl-2-{4-[(1R,2R)-2-({[4-(methylsulfonyl)benzyl]oxy}methyl)cyclopropyl]piperidin-1-yl}pyrimidine] gave an EC50 of 0.13 nM.

Turning to `CCc1cnc(N2CCC([C@H]3C[C@H]3COCc3ccc(S(C)(=O)=O)cc3)CC2)nc1` [Example 20, 5-ethyl-2-{4-[(1R,2R)-2-({[4-(methylsulfonyl)benzyl]oxy}methyl)cyclopropyl]piperidin-1-yl}pyrimidine], it took 0.74 nM to reach a half-maximal effect (EC50).

Compound `Cc1cnc(N2CCC([C@H]3C[C@H]3COCc3ccc(S(C)(=O)=O)cc3)CC2)nc1` [Example 21, 5-methyl-2-{4-[(1R,2R)-2-({[4-(methylsulfonyl)benzyl]oxy}methyl)cyclopropyl]piperidin-1-yl}pyrimidine] showed an EC50 of 1.6 nM.
